Reference: patent US20260374794A1, “COMPOUNDS TARGETING MUTANT OF P53” (JACOBIO PHARMACEUTICALS CO., LTD., priority 2022, published 2026)

Legend:
[1] = biological target: p53(Y220C)_NUGC-3 (Homo sapiens, UniProt P04637, Y220C); experiment: Reporter gene assay (NUGC-3_P53_Luc cells); format: cell-based; conditions: 6 hours, 37 °C, luciferase, normalized to Ref-1a 10 μM, EC50 = concentration at 50% Activity, read-out: p53(Y220C)_NUGC-3 EC50
Description: NUGC-3_P53_Luc single clonal cell line was established using pGL4.38[luc2P/p53 RE/Hygro] Vector (E365A, promega). NUGC-3_P53_Luc single clonal cells were cultured in 37 °C cell incubator before use. NUGC-3_P53_Luc cells were collected and washed twice with PBS to remove phenol red and then resuspended in medium to a proper concentration. Tested compound dilutions were transferred into 384 well assay plates (PerkinElmer). A desired number of cells was seeded into the assay plate and cultured for 6 hours at 37 °C cell incubator. Britelite plus Luciferase Assay Reagent were added into each well and the luminescence value was recorded on Envision. The percent of activity value of compounds treated wells was normalized between high control and low control. Wells containing cells and Ref-la (10 μM) served as high control, and wells containing cells and same percentage of DMSO served as low control. Activity value (%)=(Luminescence readoutCompound treated−Luminescence readoutLow control)/(Luminescence readoutHigh control−Luminescence readoutLow control)*100%. Then the data were analyzed either by fitting a 4-parameter logistic model or by Excel to calculate EC50 values and the EC50 was the concentration at 50% Activity on the curve.

[2] = biological target: T1, p53(Y220C) (Homo sapiens, UniProt P04637, Y220C); experiment: In vitro DNA binding assay (HTRF), His-p53 Y220C (94-294) with biotinylated p53 consensus DNA; format: biochemical; conditions: HTRF; 27 °C; His-p53 Y220C (94-294) 2.5 nM; biotinylated DNA 10 nM; normalized to 2 μM Ref-1a; EC50 = concentration at 50% Activation; read-out: p53(Y220C) EC50
T1 construct: His-p53 Y220C (94-294) protein
Description: After His-p53 Y220C (94-294) protein was placed with a compound in the present of MAb Anti His-Tb cryptate (Cisbio, Cat. NO. 61HI2TLA) in a 384 well microplate (Greiner) for 15 min at 25 °C, the assay plate was transferred into 27 °C incubator and incubated for 60 min. Biotinalyted p53 consensus DNA (ID: p53-SEQUENCE 2 —F: 5′(biotin)-[…] 3′ —R: 5′ […] 3′) was added into the assay plate in the present of Streptaidin-d2 (Cisbio, Cat. NO. 610SADLF) cryptate (Final concentration: 20 mM HEPES pH=7.4, 75 mM KCl, 1 mM MgCl2, 0.1% (w/v) BSA, 1 mM DTT, 2.5 nM His-P53 Y220C (94-294) protein, 0.33 nM MAb Anti His-Tb cryptate, 2.5 nM Streptaidin-d2 cryptate, 10 nM Biotinalyted DNA) and incubated for another 60 min. Wells containing 2 μM reference compound Ref-1a served as high control, and wells containing same percentage of DMSO served as low control. Homogeneous time-resolved fluorescence (HTRF) signals were read on Tecan Spark multimode microplate reader. HTRF ratios for each individual well were calculated by equation: HTRF ratio=(Signal F665/Signal F620)*1000. The percent of activation of compounds treated wells were normalized between high control and low control (% Activation=(HTRF ratiocompound treated−HTRF ratiolow control)/(HTRF ratiohigh control−HTRF ratiolow control)*100%). Then the data were analyzed either by fitting a 4-parameter logistic model or by Excel to calculate EC50 values. And the EC50 was the concentration at 50% Activation on the curve.

[3] = system: NUGC-3 (P53 Y220C); experiment: Cell viability assay (CellTiter-Glo); format: cell-based; conditions: Homo sapiens, 144 h, NUGC-3 cells, 6 days, 37 °C
Description: Cells were collected and counted. A desired number of cells was seeded into 96-well microplate and cultured in 37 °C cell incubator overnight. Compounds dissolved in cell culture medium were added into cell plate and cultured for 6 days. After balancing CellTiter-Glo reagent and cells at room temperature for 30 min, equal volume of CellTiter-Glo reagents was added to assay plate and shaken for 2 min for cell lysis. The cells were balanced at room temperature for 10 minutes and Luminescence signal was read using Envision. The percent of cell viability for compounds treated wells were normalized between High control and low control. Wells containing cell culture medium and same percentage DMSO served as Low control. Wells containing cells and same percentage DMSO served as High control. Cell viability (%)=(Luminescence readoutCompound treated−Luminescence readoutLow control)/(Luminescence readoutHigh control−Luminescence readoutLow control)*100%. Then the data were analyzed either by fitting a 4-parameter logistic model or by Excel to calculate IC50 values. And the IC50 was the concentration at […] Cell viability on the curve.

SMILES | EC50 [1] [nM] | EC50 [2] [nM] | IC50 [3] [nM]
COc1cc([S@](C)(=N)=O)ccc1NCC#Cc1sc2c(N[C@@H]3CC[N@+](C)([O-])C[C@@H]3F)cccc2c1CC(F)(F)F (single isomer, unassigned) [Example 8] | 7230 | 38 | 
COc1cc([S@](C)(=N)=O)ccc1NCC#Cc1sc2c(N[C@@H]3CC[N@@+](C)([O-])C[C@@H]3F)cccc2c1CC(F)(F)F (single isomer, unassigned) [Example 9] | 1900 | 62 | 
CN1CC[C@@H](Nc2cccc3c(CC(F)(F)F)c(C#CCNc4ccc(P(C)(C)=O)cc4-c4cc[nH]n4)sc23)[C@@H](F)C1 [Example 3, (4-((3-(7-(((3S,4R)-3-fluoro-1-methylpiperidin-4-yl)amino)-3-(2,2,2-trifluoroethyl)benzo[b]thiophen-2-yl)prop-2-yn-1-yl)amino)-3-(1H-pyrazol-3-yl)phenyl)dimethylphosphine oxide] | 55 |  | 1400
COc1cc(P(C)(C)=O)ccc1NCC#Cc1sc2c(NC3CN(C)CC3F)cccc2c1CC(F)(F)F (stereo not drawn) [Example 13, (4-((3-(7-((4-fluoro-1-methylpyrrolidin-3-yl)amino)-3-(2,2,2-trifluoroethyl)benzo[b]thiophen-2-yl)prop-2-yn-1-yl)amino)-3-methoxyphenyl)dimethylphosphine oxide] | 138 | 104 | 1390
COc1cc(S(=N)(=O)C2CCOCC2)ccc1NCC#Cc1sc2c(NC3CCN(C)CC3F)cccc2c1CC(F)(F)F [Example 24, (S)-(4-((3-(7-(((3S,4R)-3-fluoro-1-methylpiperidin-4-yl)amino)-3-(2,2,2-trifluoroethyl)benzo[b]thiophen-2-yl)prop-2-yn-1-yl)amino)-3-methoxyphenyl)(imino)(tetrahydro-2H-pyran-4-yl)-16-sulfanone] | 119 | 68 | 900
COc1cc([S@](=N)(=O)C(C)C)ccc1NCC#Cc1sc2c(N[C@@H]3CCN(C)C[C@@H]3F)cccc2c1CC(F)(F)F [Example 26, (R)-(4-((3-(7-(((3S,4R)-3-fluoro-1-methylpiperidin-4-yl)amino)-3-(2,2,2-trifluoroethyl)benzo[b]thiophen-2-yl)prop-2-yn-1-yl)amino)-3-methoxyphenyl)(imino)(isopropyl)-16-sulfanone] | 208 | 70 | 1840
COc1cc(P(C)(C)=O)ccc1NCC#Cc1sc2c(N[C@@H]3CCN(C)C[C@@H]3F)cccc2c1[C@@H](O)C(F)(F)F [Example 33, (4-((3-(7-(((3S,4R)-3-fluoro-1-methylpiperidin-4-yl)amino)-3-((R)-2,2,2-trifluoro-1-hydroxyethyl)benzo[b]thiophen-2-yl)prop-2-yn-1-yl)amino)-3-methoxyphenyl)dimethylphosphine oxide] | 102 | 55 | 1440
COc1cc(P(C)(C)=O)ccc1NCC#Cc1sc2c(N[C@H]3CCN(C)C[C@H]3F)cccc2c1[C@@H](O)C(F)(F)F [Example 34, (4-((3-(7-(((3R,4S)-3-fluoro-1-methylpiperidin-4-yl)amino)-3-((R)-2,2,2-trifluoro-1-hydroxyethyl)benzo[b]thiophen-2-yl)prop-2-yn-1-yl)amino)-3-methoxyphenyl)dimethylphosphine oxide] | 28 | 20 | 380
COc1c(NCC#Cc2sc3c(N[C@@H]4CCN(C)C[C@@H]4F)cccc3c2CC(F)(F)F)ccc(P(C)(C)=O)c1C(F)(F)F [Example 42, (4-((3-(7-(((3S,4R)-3-fluoro-1-methylpiperidin-4-yl)amino)-3-(2,2,2-trifluoroethyl)benzo[b]thiophen-2-yl)prop-2-yn-1-yl)amino)-3-methoxy-2-(trifluoromethyl)phenyl)dimethylphosphine oxide] | 252 | 93 | 1890

Further lines, with some results ahead:

EC50 [1] [nM] | EC50 [2] [nM] | SMILES | IC50 [3] [nM]
3940 | 81 | COc1cc(P(C)(C)=O)ccc1NCC#Cc1sc2c(N[C@@H]3CC[N@@+](C)([O-])C[C@@H]3F)cccc2c1CC(F)(F)F (single isomer, unassigned) [Example 7] | 
11100 | 53 | COc1cc(P(C)(C)=O)ccc1NCC#Cc1sc2c(N[C@@H]3CC[N@+](C)([O-])C[C@@H]3F)cccc2c1CC(F)(F)F (single isomer, unassigned) [Example 10] | 
196 |  | CN1CC[C@@H](Nc2cccc3c(CC(F)(F)F)c(C#CCNc4ccc(P(C)(C)=O)c5ccoc45)sc23)[C@@H](F)C1 [Example 2, (7-((3-(7-(((3S,4R)-3-fluoro-1-methylpiperidin-4-yl)amino)-3-(2,2,2-trifluoroethyl)benzo[b]thiophen-2-yl)prop-2-yn-1-yl)amino)benzofuran-4-yl)dimethylphosphine oxide] | 
244 | 77 | COc1cc(P(C)(C)=O)ccc1NCC#Cc1sc2c(N[C@@H]3CCCN(C)C3)cccc2c1CC(F)(F)F [Example 28, (R)-(3-methoxy-4-((3-(7-((1-methylpiperidin-3-yl)amino)-3-(2,2,2-trifluoroethyl)benzo[b]thiophen-2-yl)prop-2-yn-1-yl)amino)phenyl)dimethylphosphine oxide] | 1550
126 | 29 | COc1cc(P(C)(C)=O)ccc1NCC#Cc1sc2c(N[C@@H]3CCN(C)C[C@@H]3F)cccc2c1[C@H](O)C(F)(F)F [Example 31, (4-((3-(7-(((3S,4R)-3-fluoro-1-methylpiperidin-4-yl)amino)-3-((S)-2,2,2-trifluoro-1-hydroxyethyl)benzo[b]thiophen-2-yl)prop-2-yn-1-yl)amino)-3-methoxyphenyl)dimethylphosphine oxide] | 870
117 | 81 | COc1cc(S(C)(=O)=O)ccc1NCC#Cc1sc2c(N[C@@H]3CCN(C)C[C@@H]3F)cccc2c1CC(F)(F)F [Example 36, (3S,4R)-3-fluoro-N-(2-(3-((2-methoxy-4-(methylsulfonyl)phenyl)amino)prop-1-yn-1-yl)-3-(2,2,2-trifluoroethyl)benzo[b]thiophen-7-yl)-1-methylpiperidin-4-amine] | 590
137 | 56 | COc1c(NCC#Cc2sc3c(N[C@@H]4CCN(C)C[C@@H]4F)cccc3c2CC(F)(F)F)ccc(P(C)(C)=O)c1C [Example 41, (4-((3-(7-(((3S,4R)-3-fluoro-1-methylpiperidin-4-yl)amino)-3-(2,2,2-trifluoroethyl)benzo[b]thiophen-2-yl)prop-2-yn-1-yl)amino)-3-methoxy-2-methylphenyl)dimethylphosphine oxide] | 1230
50 |  | COc1cc(S(C)(=O)=O)ccc1NCC#Cc1cc2c(N[C@@H]3CCN(C)C[C@@H]3F)cccc2n1CC(F)(F)F [Ref-1a, reference compound] | 
